Measurements: patent US11666562B2, “Ilaprazole for inhibiting the release of enveloped viruses from cells” (Northwestern University, priority 2020, dated 2023)
Entries after “also recorded” stand apart in the source; their conditions may differ.

Assays:
[1] = system: HSV-1; test: Transmission electron microscopy of HSV-1 infected Vero cells, location of virus particles; format: cell-based, Herpes simplex virus-1 (Kos strain); conditions: HSV-1, 18 μM ilaprazole, 24 h
Description: FIG. 4. Inhibitory effect of Ilaprazole on HSV-2 and HSV-1 production. Vero cells infected with HSV-2 or HSV-1 at MOI of 0.1 and examined by transmission electron microscopy 24 h later. HSV-2 infected untreated cells (A & B) and cells treated with 18 μM ilaprazole (C & D). HSV-1 infected untreated cells (E & F) and cells treated with 18 μM ilaprazole (G & H). Eighty cells where virus particles were observed were examined. In the presence of ilaprazole, we observe no or very few particles in the cytoplasm. Treated cells also have an accumulation of electron dense material and particles associated with them. In untreated HSV-2 infected cells, we observed an average of 120 particles ranging from 28-204 […], and an average of 16 particles ranging from 10-22 in the nucleus. In treated HSV-2 infected cells, we observed 0 particles in the cytoplasm and an average of 31 particles ranging from 9-56 in the nucleus. In untreated HSV-1 infected cells we observed an average of 135 particles ranging from 12-152 in the cytoplasm, and an average of 35 particles ranging from 10-66 in the nucleus. In treated HSV-1 infected cells, we observed 0 particles in the cytoplasm and an average of 43 particles ranging from 15-166 in the nucleus. Arrows point to virus particles. Nuc, nucleus. Cyt, cytoplasm.
We next carried out a transmission electron microscopic examination of cells infected with HSV-2 at a MOI 0.1 in the presence and absence of 18 μM ilaprazole to determine if this drug causes the accumulation of virus particles in the nucleus of cells similar to tenatoprazole. […] In both heavily infected cells (FIGS. 4A & C) and mildly infected cells (FIGS. 4B & D), treatment lead to particles being detected in the nucleus and arrayed along the nuclear membrane but lacking in the cytosol. […] The lower total infectious virus detected in Table 3 (FIG. 7) is consistent with blockage of the virus passaging out of the nucleus into the cytoplasm where membranes are exchanged and virus becomes infectious. […]

[2] = system: 293T cells; test: 293T cell toxicity; format: cell-based; conditions: at drug concentrations that inhibited release of HIV-1
Description: Drug potency and cell toxicity. EC50 calculations were determined by using AAT Bioquest's EC50 calculator. Cell toxicity at different concentrations of drugs as indicated was determine using the Cell Proliferation Reagent WST-1 (Roche Diagnostics) or cellular 96® Aqueous One Reagent viability reagent according to manufacturer's instructions. For 293T cells, the concentration of DMSO was 0.2% or less and assays were carried out with DMEM with 10% serum. Cell toxicity experiments were repeated twice.

[3] = target: ENO1 (Homo sapiens, UniProt P06733); test: FTS assay against unrelated protein ENO1; format: binding
Excerpt: (§1) FIG. 1. Thermal shift data of Tsg101 by lead compound Tenatoprazole (N16). […] (B) Thermal shift data of three human proteins, DHPH, ENO1, and MEK4 not related to Tsg101 by lead compound tenatoprazole. […] (C) The addition of DTT abolishes the Tm shift in the FTS assay, consistent with prazole compounds forming a disulfide bond to Tsg101. Rabe: Rabeprazole, Ila: Ilaprazole, Tenato: tenatoprazole, Panto: pantoprazole, ref: reference.
(§2) This specific binding is consistent with a previous NMR structure in which tenatoprazole forms a covalent disulfide bond to Cys73 in the UEV domain of the protein (5). This disulfide bond formation can be prevented by including the reducing agent DTT in the assay (FIG. 1C). The addition of DTT abolished the Tsg101-UEV Tm shift caused by the prazoles. […]
(§3) Fluorescence thermal shift (FTS) screening to identify small molecule binding to Tsg101-UEV. […] Discovery of small molecule binding to target protein utilizes the observation that ligand binding affects protein thermal stability, and therefore can be detected through a shift in the protein's thermal denaturation (melting) temperature (Tm). […] A fluorescence dye Sypro-Orange (Invitrogen) was used for assay detection. The dye is excited at 473 nm and has a fluorescence emission at 610 nm. […] Fluorescence was detected on a real-time PCR machine CFX384 (Bio-Rad Laboratories).

[4] = system: HIV-1; conditions: earlier reports (refs 5, 29); cited from earlier work
[5] = system: DHPH; test: FTS assay against unrelated protein DHPH; format: binding, human
Excerpt: as §1, §2, §3

ENO1, sequence (P06733 whole entry): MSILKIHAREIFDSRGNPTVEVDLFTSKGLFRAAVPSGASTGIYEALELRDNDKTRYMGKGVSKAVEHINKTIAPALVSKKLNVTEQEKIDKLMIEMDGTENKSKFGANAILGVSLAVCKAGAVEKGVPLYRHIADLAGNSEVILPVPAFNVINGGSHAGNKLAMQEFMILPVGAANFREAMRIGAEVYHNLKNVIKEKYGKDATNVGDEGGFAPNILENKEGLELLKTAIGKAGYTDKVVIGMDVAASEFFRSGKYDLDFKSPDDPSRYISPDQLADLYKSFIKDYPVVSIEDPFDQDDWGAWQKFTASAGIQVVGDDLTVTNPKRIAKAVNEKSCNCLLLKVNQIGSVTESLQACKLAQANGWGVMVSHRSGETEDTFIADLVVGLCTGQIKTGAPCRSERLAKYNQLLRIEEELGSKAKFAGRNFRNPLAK

Structure (SMILES) | Average number of virus particles in the nucleus [1] [particles] | Range of number of virus particles in the nucleus [1] | Virus particles in the cytoplasm [1] [particles] | Toxicity to 293T cells [2] | Effect on thermal stability (Tm shift) of ENO1 [3] | Inhibition of release of infectious HIV-1 from 293T cells [4] | Effect on thermal stability (Tm shift) of DHPH [5]
COc1ccnc(C[S+]([O-])c2nc3ccc(-n4cccc4)cc3[nH]2)c1C (stereo not shown) [Ilaprazole, 2-[(4-methoxy-3-methylpyridin-2-yl)methylsulfinyl]-6-pyrrol-1-yl-1H-benzimidazole] | 43 | 15-166 particles | 0 | did not detect toxicity | – | – | –
COc1ccc2[nH]c([S+]([O-])Cc3ncc(C)c(OC)c3C)nc2n1 (stereo not shown) [Tenatoprazole] | – | – | – | – | negligible; also recorded: did not observe a Tm shift | quantitatively inhibit the release | negligible; also recorded: did not observe a Tm shift
